From patent US8729089B2 (Gilead Sciences, Inc., priority 2006, dated 2014)

Columns and labels:
[1] = system: HCV replicon in human hepatoma Huh-7 cell line; test: Anti-HCV replicon assay (EC50, luciferase); type: cell-based; conditions: Hepatitis C virus, Huh-7, 72 h
Method in brief: (§1)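 Huh-7 cells carrying an HCV replicon (6000/well) exposed to 3-fold serial compound dilutions for 3 days at 37 °C, final DMSO 0.5% where used. EC50 read as replicon luciferase luminescence after cell lysis; CC50 from CellTiter-Glo luminescence after 10 min at room temperature.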

[2] = CC50 assay (CellTiter-Glo) in Huh-7 HCV replicon cells; type: cell-based, human; conditions: human, 3 days incubation, CellTiter-Glo readout
Method in brief: as §1

Row | SMILES | EC50 [1] [µM] | CC50 at 3 days [2] [µM]
1 | CCOc1nc(NCc2ccc(F)cc2)nc2ccc(-c3ccc(C(=O)NC4(C#N)CC4)cc3)nc12 [Example 98, N-(1-Cyano-cyclopropyl)-4-[4-ethoxy-2-(4-fluoro-benzylamino)-pyrido[3,2-d]pyrimidin-6-yl]-benzamide] | < 0.1 | > 25
2 | CCOc1nc(NCc2ccc(F)cc2)nc2ccc(-c3ccc(NC(=O)C4(N)CC4)cc3)nc12 [Example 99, 1-Amino-cyclopropanecarboxylic acid {4-[4-ethoxy-2-(4-fluoro-benzylamino)-pyrido[3,2-d]pyrimidin-6-yl]-phenyl}-amide] | < 0.1 | < 5
3 | CCOc1nc(NCc2ccc(F)cc2)nc2ccc(-c3cnc(N)s3)nc12 [Example 100, [6-(2-Amino-thiazol-5-yl)-4-ethoxy-pyrido[3,2-d]pyrimidin-2-yl]-(4-fluoro-benzyl)-amine] | < 0.1 | < 5
4 | CCOc1nc(NCc2ccc(F)cc2)nc2ccc(-c3ccc(NC(=O)C4(O)CC4)cc3)nc12 [Example 101, 1-Hydroxy-cyclopropanecarboxylic acid {4-[4-ethoxy-2-(4-fluoro-benzylamino)-pyrido[3,2-d]pyrimidin-6-yl]-phenyl}-amide] | < 0.1 | 5 to 25
5 | CCOc1nc(NCc2ccc(F)cc2)nc2ccc(-c3cccc(N(CCO)S(C)(=O)=O)c3)nc12 [Example 102, N-{3-[4-Ethoxy-2-(4-fluoro-benzylamino)-pyrido[3,2-d]pyrimidin-6-yl]-phenyl}-N-(2-hydroxy-ethyl)-methanesulfonamide] | < 0.1 | 5 to 25
6 | CCOc1nc(NCc2ccc(F)cc2)nc2ccc(-c3ccc(C(=O)NC(C)(C)CN4CCOCC4)cc3)nc12 [Example 103, N-(1,1-Dimethyl-2-morpholin-4-yl-ethyl)-4-[4-ethoxy-2-(4-fluoro-benzylamino)-pyrido[3,2-d]pyrimidin-6-yl]-benzamide] | < 0.1 | < 5
7 | CCOc1nc(NCc2ccc(F)cc2)nc2ccc(-c3ccc(N4CCCC4=O)cc3)nc12 [Example 104, 1-{4-[4-Ethoxy-2-(4-fluoro-benzylamino)-pyrido[3,2-d]pyrimidin-6-yl]-phenyl}-pyrrolidin-2-one] | < 0.1 | 5 to 25
8 | CCOc1nc(NCc2ccc(F)cc2)nc2ccc(-c3ccc(NC(=O)C(C)(C)N)cc3)nc12 [Example 105, 2-Amino-N-{4-[4-ethoxy-2-(4-fluoro-benzylamino)-pyrido[3,2-d]pyrimidin-6-yl]-phenyl}-2-methyl-propionamide] | < 0.1 | < 5
9 | CCOc1nc(NCc2ccc(F)cc2F)nc2ccc(-c3ccc(C(=O)NC4CC4)cc3)nc12 [Example 107, N-Cyclopropyl-4-[2-(2,4-difluoro-benzylamino)-4-ethoxy-pyrido[3,2-d]pyrimidin-6-yl]-benzamide] | < 0.1 | 5 to 25
10 | CCOc1nc(NCc2ccc(F)cc2F)nc2ccc(-c3ccc(F)cc3)nc12 [Example 108, (2,4-Difluoro-benzyl)-{4-ethoxy-6-(4-fluoro-phenyl)-pyrido[3,2-d]pyrimidin-2-yl]-amine] | < 0.1 | 5 to 25
11 | CCOc1nc(NCc2ccc(S(N)(=O)=O)cc2)nc2ccc(-c3ccc(F)cc3)nc12 [Example 109, 4-{[4-ethoxy-6-(4-fluoro-phenyl)-pyrido[3,2-d]pyrimidin-2-ylamino]-methyl}-benzenesulfonamide] | < 0.1 | 5 to 25
12 | NS(=O)(=O)c1ccc(CNc2nc(OC3CCCC3)c3nc(-c4ccc(F)cc4)ccc3n2)cc1 [Example 110, 4-{[4-Cyclopentyloxy-6-(4-fluoro-phenyl)-pyrido[3,2-d]pyrimidin-2-ylamino]-methyl}-benzenesulfonamide] | < 0.1 | 5 to 25
13 | NS(=O)(=O)c1ccc(CNc2nc(OC3CCC3)c3nc(-c4ccc(F)cc4)ccc3n2)cc1 [Example 111, 4-{[4-Cyclobutoxy-6-(4-fluoro-phenyl)-pyrido[3,2-d]pyrimidin-2-ylamino]-methyl}-benzenesulfonamide] | < 0.1 | 5 to 25
14 | CCCc1nc(NCc2ccc(S(N)(=O)=O)cc2)nc2ccc(-c3ccc(F)cc3)nc12 [Example 112, 4-{[6-(4-Fluoro-phenyl)-4-propyl-pyrido[3,2-d]pyrimidin-2-ylamino]-methyl}-benzenesulfonamide] | < 0.1 | < 5
15 | CCOc1nc(N[C@H](C)c2ccccc2)nc2ccc(-c3ccc(F)cc3)nc12 [Example 113, [4-Ethoxy-6-(4-fluoro-phenyl)-pyrido[3,2-d]pyrimidin-2-yl]-(1-phenyl-ethyl)-amine] | < 0.1 | > 25
16 | CCOc1nc(NCc2nccs2)nc2ccc(-c3ccc(F)cc3)nc12 [Example 114, [4-Ethoxy-6-(4-fluoro-phenyl)-pyrido[3,2-d]pyrimidin-2-yl]-thiazol-2-ylmethyl-amine] | < 0.1 | 5 to 25

Row | SMILES | EC50 [1] [µM] | CC50 at 3 days [2] [µM]
17 | CCOc1nc(NCc2cocn2)nc2ccc(-c3ccc(F)cc3)nc12 [Example 115, [4-Ethoxy-6-(4-fluoro-phenyl)-pyrido[3,2-d]pyrimidin-2-yl]-oxazol-4-ylmethyl-amine] | < 0.1 | 5 to 25
18 | CCOc1nc(NCc2ccon2)nc2ccc(-c3ccc(F)cc3)nc12 [Example 116, [4-Ethoxy-6-(4-fluoro-phenyl)-pyrido[3,2-d]pyrimidin-2-yl]-isoxazol-3-ylmethyl-amine] | < 0.1 | > 25
19 | CCOc1nc(NCc2ccc(CS(=O)(=O)NC(C)C)cc2)nc2ccc(-c3ccc(F)cc3)nc12 [Example 117, C-(4-{[4-Ethoxy-6-(4-fluoro-phenyl)-pyrido[3,2-d]pyrimidin-2-ylamino]-methyl}-phenyl)-N-isopropyl-methanesulfonamide] | < 0.1 | 5 to 25
20 | CCOc1nc(NCCc2ccccc2)nc2ccc(-c3ccc(F)cc3)nc12 [Example 118, [4-Ethoxy-6-(4-fluoro-phenyl)-pyrido[3,2-d]pyrimidin-2-yl]-phenethyl-amine] | < 0.1 | 5 to 25
21 | CCOc1nc(NCc2ccc(S(C)(=O)=O)cc2)nc2ccc(-c3ccc(F)cc3)nc12 [Example 119, [4-Ethoxy-6-(4-fluoro-phenyl)-pyrido[3,2-d]pyrimidin-2-yl]-(4-methanesulfonyl-benzyl)-amine] | < 0.1 | < 5
22 | CCOc1nc(NCc2ccc(S(N)(=O)=O)cc2)nc2ccc(-c3ccc(NC(=O)[C@H]4CCNC4)c(F)c3)nc12 [Example 120, (S)-4-{[4-Ethoxy-6-(3-fluoro-4-(pyrrolidine-3-carboxamido)-phenyl)-pyrido[3,2-d]pyrimidin-2-ylamino]-methyl}-benzenesulfonamide] | < 0.1 | 5 to 25
23 | CCOc1nc(NCc2ccc(S(N)(=O)=O)cc2)nc2ccc(-c3ccc(NC(=O)[C@H]4CCNC4)cc3)nc12 [Example 121, (S)-4-{[4-Ethoxy-6-(4-(pyrrolidine-3-carboxamido)-phenyl)-pyrido[3,2-d]pyrimidin-2-ylamino]-methyl}-benzenesulfonamide] | < 0.1 | > 25
24 | CCOc1nc(NCc2ccc(S(N)(=O)=O)cc2)nc2ccc(-c3ccc(N4CCC(O)C4=O)cc3)nc12 (stereo not shown) [Example 122, 4-{[4-Ethoxy-6-(4-(3-hydroxy-2-oxopyrrolidin-1-yl)-phenyl)-pyrido[3,2-d]pyrimidin-2-ylamino]-methyl}-benzenesulfonamide] | < 0.1 | > 25
25 | CCOc1nc(NCc2ccc(S(N)(=O)=O)cc2)nc2ccc(-c3ccc(NC(=O)NCCN4CCOCC4)cc3)nc12 [Example 123, 4-{[4-Ethoxy-6-(4-(3-(2-(morpholin-4-yl)ethyl)ureido)-phenyl)-pyrido[3,2-d]pyrimidin-2-ylamino]-methyl}-benzenesulfonamide] | < 0.1 | 5 to 25
26 | CCOc1nc(NCc2ccc(S(N)(=O)=O)cc2)nc2ccc(-c3ccc(NC(=O)NCCN4CCCC4)cc3)nc12 [Example 124, 4-{[4-Ethoxy-6-(4-(3-(2-(pyrrolidin-1-yl)ethyl)ureido)-phenyl)-pyrido[3,2-d]pyrimidin-2-ylamino]-methyl}-benzenesulfonamide] | < 0.1 | 5 to 25
27 | CCOc1nc(NCc2ccc(S(N)(=O)=O)cc2)nc2ccc(-c3ccc(NC(=O)OCCN4CCCC4)cc3)nc12 [Example 125] | < 0.1 | < 5
28 | CCOc1nc(NCc2ccc(S(N)(=O)=O)cc2)nc2ccc(-c3cnc(N)s3)nc12 [Example 126, 4-{[4-Ethoxy-6-(2-aminothiazole-5-yl)-pyrido[3,2-d]pyrimidin-2-ylamino]-methyl}-benzenesulfonamide] | < 0.1 | < 5
29 | CCOc1nc(NCc2ccc(S(N)(=O)=O)cc2)nc2ccc(-c3ccc(F)c(Cl)c3)nc12 [Example 127, 4-{[4-Ethoxy-6-(3-chloro-4-fluorophenyl)-pyrido[3,2-d]pyrimidin-2-ylamino]-methyl}-benzenesulfonamide] | < 0.1 | < 5
30 | CCOc1nc(NCc2ccc(S(N)(=O)=O)cc2)nc2ccc(-c3ccc(NC(=O)N4CCOCC4)cc3)nc12 [Example 128, 4-{[4-Ethoxy-6-(4-(morpholine-4-carboxamido)-phenyl)-pyrido[3,2-d]pyrimidin-2-ylamino]-methyl}-benzenesulfonamide] | < 0.1 | 5 to 25
31 | CCOc1nc(NCc2ccc(S(N)(=O)=O)cc2)nc2ccc(-c3ccc(NC(=O)N4CCCC4)cc3)nc12 [Example 129, 4-{[4-Ethoxy-6-(4-(pyrrolidine-1-carboxamido)-phenyl)-pyrido[3,2-d]pyrimidin-2-ylamino]-methyl}-benzenesulfonamide] | < 0.1 | > 25
32 | CCOc1nc(NCc2ccc(S(N)(=O)=O)cc2)nc2ccc(-c3ccc(NC(N)=O)cc3)nc12 [Example 130, 4-{[4-Ethoxy-6-(4-ureidophenyl)-pyrido[3,2-d]pyrimidin-2-ylamino]-methyl}-benzenesulfonamide] | < 0.1 | 5 to 25
